Among the data in US20240287078A1, “QUINAZOLINE DERIVATIVES USEFUL AS RAS INHIBITORS” (Redx Pharma PLC, priority 2021, published 2024) are IC50 and inhibition values, retold here.

SMILES strings stand for the structures.

Holding throughout (type): biochemical
The target of one assay is T1, KRAS G12D (Homo sapiens, UniProt P01116, G12D).
T1 construct: aa1-188 KRAS WT, HRAS WT, NRAS WT, or KRAS containing the containing the G12D, G13D or Q61H amino acid substitutions
The assay can be described thus: HTRF nucleotide exchange assay (NEA), KRAS G12D. The note with it: recombinant human KRAS aa1-188 G12D, 2 nM; 60 min compound incubation, EDA-GTP-DY647P1. The procedure: (§1) HTRF Nucleotide Exchange Assay Method
(§2) The capacity of compounds to bind KRAS G12D, other KRAS mutants and wildtype RAS isoforms was quantified using a HTRF nucleotide exchange assay. Recombinant human RAS protein (2 nM; aa1-188 KRAS WT, HRAS WT, NRAS WT, or KRAS containing the containing the G12D, G13D or Q61H amino acid substitutions, or 4 nM KRAS; aa1-188 containing the G12V, G12C, G12A or G12S amino acid substitution, an N-terminal 6×His-tag and leader sequence), and 2 nM Europium-labeled anti-6×His antibody were mixed in assay buffer (10 mM HEPES pH7.3, 150 mM NaCl, 5 mM MgCl2, 0.05% BSA, 0.0025% NP-40 and 100 mM KF) with various concentrations of compound in a 384-well plate and a volume of 5 uL. After a 60-minute incubation at room temperature, Sul of 200 nM EDA-GTP-DY647P1 (diluted in assay buffer) was added to the plate. Following 30-minute incubation at room temperature, time-resolved fluorescence was measured on a PerkinElmer Envision plate reader. DMSO (0.3%) and unlabeled GDP (1 μM) or equivalent tool compound were used to generate the Max and Min assay signals, respectively. Data was analysed using a four-parameter logistic model to calculate IC50 values, with at least two independent replicates were performed for each compound.

The target of the next assay is T2, KRAS G12S (Homo sapiens, UniProt P01116, G12S).
T2 construct: 4 nM KRAS; aa1-188 containing the G12V, G12C, G12A or G12S amino acid substitution
The assay can be described thus: HTRF nucleotide exchange assay (NEA), KRAS G12S. As to conditions: recombinant human KRAS aa1-188 G12S, 4 nM; 60 min compound incubation, EDA-GTP-DY647P1. The procedure:
as §1, §2

Another assay has as its target T3, KRAS G12A (Homo sapiens, UniProt P01116, G12A).
T3 construct: 4 nM KRAS; aa1-188 containing the G12V, G12C, G12A or G12S amino acid substitution
The assay can be described thus: HTRF nucleotide exchange assay (NEA), KRAS G12A. As to conditions: recombinant human KRAS aa1-188 G12A, 4 nM; 60 min compound incubation, EDA-GTP-DY647P1. The procedure:
as §1, §2

For a further assay, the target named is T4, KRAS WT (Homo sapiens, UniProt P01116).
T4 construct: aa1-188 KRAS WT, HRAS WT, NRAS WT
The experiment in a line: HTRF nucleotide exchange assay (NEA), KRAS WT. The note with it: recombinant human KRAS WT aa1-188, 2 nM; 60 min compound incubation, EDA-GTP-DY647P1. The procedure: as §1, §2

The target in another assay is T5, KRAS Q61H (Homo sapiens, UniProt P01116, Q61H).
T5 construct: aa1-188 KRAS WT, HRAS WT, NRAS WT, or KRAS containing the containing the G12D, G13D or Q61H amino acid substitutions
The experiment in a line: HTRF nucleotide exchange assay (NEA), KRAS Q61H. The note with it: recombinant human KRAS aa1-188 Q61H, 2 nM; 60 min compound incubation, EDA-GTP-DY647P1. The procedure:
as §1, §2

A further assay has as its target T6, KRAS G12V (Homo sapiens, UniProt P01116, G12V).
T6 construct: 4 nM KRAS; aa1-188 containing the G12V, G12C, G12A or G12S amino acid substitution
The experiment in a line: HTRF nucleotide exchange assay (NEA), KRAS G12V. As to conditions: recombinant human KRAS aa1-188 G12V, 4 nM; 60 min compound incubation, EDA-GTP-DY647P1. The procedure:
as §1, §2

The next assay addresses T7, KRAS G12C (Homo sapiens, UniProt P01116, G12C).
T7 construct: 4 nM KRAS; aa1-188 containing the G12V, G12C, G12A or G12S amino acid substitution
The experiment in a line: HTRF nucleotide exchange assay (NEA), KRAS G12C. As to conditions: recombinant human KRAS aa1-188 G12C, 4 nM; 60 min compound incubation, EDA-GTP-DY647P1. The procedure: as §1, §2

The target of the next assay is T8, KRAS G13D (Homo sapiens, UniProt P01116, G13D).
T8 construct: aa1-188 KRAS WT, HRAS WT, NRAS WT, or KRAS containing the containing the G12D, G13D or Q61H amino acid substitutions
The experiment in a line: HTRF nucleotide exchange assay (NEA), KRAS G13D. As to conditions: recombinant human KRAS aa1-188 G13D, 2 nM, 60 min compound incubation, EDA-GTP-DY647P1; for inhibition at 10 µM: 1 h. Here is the method: as §1
The capacity of compounds to bind KRAS G12D, other KRAS mutants and wildtype RAS isoforms was quantified using a HTRF nucleotide exchange assay. […] After a 60-minute incubation at room temperature, Sul of 200 nM EDA-GTP-DY647P1 (diluted in assay buffer) was added to the plate. Following 30-minute incubation at room temperature, time-resolved fluorescence was measured on a PerkinElmer Envision plate reader. DMSO (0.3%) and unlabeled GDP (1 μM) or equivalent tool compound were used to generate the Max and Min assay signals, respectively. Data was analysed using a four-parameter logistic model to calculate IC50 values, with at least two independent replicates were performed for each compound.

T2 sequence (P01116 1-188 isoform P01116-2 G12S): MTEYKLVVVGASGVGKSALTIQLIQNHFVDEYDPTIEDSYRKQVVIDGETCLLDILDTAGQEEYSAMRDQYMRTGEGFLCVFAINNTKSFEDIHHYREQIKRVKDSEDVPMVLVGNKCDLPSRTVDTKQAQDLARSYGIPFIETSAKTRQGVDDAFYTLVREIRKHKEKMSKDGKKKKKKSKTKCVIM
T3 sequence (P01116 1-188 isoform P01116-2 G12A): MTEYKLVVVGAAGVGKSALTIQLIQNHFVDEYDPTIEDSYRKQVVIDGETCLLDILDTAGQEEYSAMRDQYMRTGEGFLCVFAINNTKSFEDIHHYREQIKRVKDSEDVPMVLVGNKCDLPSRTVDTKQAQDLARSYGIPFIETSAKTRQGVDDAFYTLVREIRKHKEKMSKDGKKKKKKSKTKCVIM
T5 sequence (P01116 1-188 isoform P01116-2 Q61H): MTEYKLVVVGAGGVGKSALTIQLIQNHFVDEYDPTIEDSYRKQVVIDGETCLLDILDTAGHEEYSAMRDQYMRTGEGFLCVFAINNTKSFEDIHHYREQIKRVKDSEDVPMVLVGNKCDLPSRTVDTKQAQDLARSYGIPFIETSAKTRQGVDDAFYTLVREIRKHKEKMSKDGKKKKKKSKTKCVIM
T4 sequence (P01116 1-188 isoform P01116-2): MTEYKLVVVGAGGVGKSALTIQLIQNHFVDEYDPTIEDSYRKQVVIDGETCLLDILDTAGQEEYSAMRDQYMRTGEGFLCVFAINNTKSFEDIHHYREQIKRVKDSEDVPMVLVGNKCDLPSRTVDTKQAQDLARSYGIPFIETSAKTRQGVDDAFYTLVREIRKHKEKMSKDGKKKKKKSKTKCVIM
T1 sequence (P01116 1-188 isoform P01116-2 G12D): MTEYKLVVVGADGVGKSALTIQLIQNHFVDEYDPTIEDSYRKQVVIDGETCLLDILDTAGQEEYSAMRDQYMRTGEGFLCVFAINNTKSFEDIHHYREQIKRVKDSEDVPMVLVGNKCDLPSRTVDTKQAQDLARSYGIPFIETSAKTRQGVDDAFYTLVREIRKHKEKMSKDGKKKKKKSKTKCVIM
T8 sequence (P01116 1-188 isoform P01116-2 G13D): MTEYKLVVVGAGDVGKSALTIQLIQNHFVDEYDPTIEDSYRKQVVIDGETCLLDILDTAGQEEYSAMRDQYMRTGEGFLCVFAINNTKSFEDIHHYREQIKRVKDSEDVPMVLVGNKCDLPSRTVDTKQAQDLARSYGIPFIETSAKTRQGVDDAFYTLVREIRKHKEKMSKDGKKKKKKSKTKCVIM
T7 sequence (P01116 1-188 isoform P01116-2 G12C): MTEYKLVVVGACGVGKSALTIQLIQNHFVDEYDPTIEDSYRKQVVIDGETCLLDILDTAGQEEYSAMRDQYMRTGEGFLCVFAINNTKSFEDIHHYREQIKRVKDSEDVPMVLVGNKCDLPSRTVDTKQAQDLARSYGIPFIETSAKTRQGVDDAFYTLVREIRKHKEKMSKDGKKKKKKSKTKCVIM
T6 sequence (P01116 1-188 isoform P01116-2 G12V): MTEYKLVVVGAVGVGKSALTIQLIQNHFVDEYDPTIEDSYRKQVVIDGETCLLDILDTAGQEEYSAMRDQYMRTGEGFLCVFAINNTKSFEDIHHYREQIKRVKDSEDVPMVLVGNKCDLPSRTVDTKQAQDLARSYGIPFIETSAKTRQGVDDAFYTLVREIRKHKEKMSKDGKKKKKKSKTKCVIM

As for `Oc1cc(-c2ccc3c(N4CCCOCC4)nc(OCC45CCCN4CCC5)nc3c2F)c2ccccc2c1` [Example 25, 4-[8-fluoro-2-(1,2,3,5,6,7-hexahydropyrrolizin-8-ylmethoxy)-4-(1,4-oxazepan-4-yl)quinazolin-7-yl]naphthalen-2-ol], the half-maximal inhibitory concentration (IC50) fell in the range of 10 to 100 nM on KRAS G12D; 100 to 10000 nM at KRAS G12S; 10 to 100 nM on KRAS G12A; 10 to 100 nM on KRAS WT; 100 to 10000 nM on KRAS Q61H; 10 to 100 nM at KRAS G12V. The IC50 on KRAS G12C lay within 10 to 100 nM. The inhibition at 10 µM at KRAS G13D lay within 10 to 49%.
In the case of `N#Cc1cc2c(N3CCCOCC3)nc(OCC34CCCN3CCC4)nc2c(F)c1-c1cc(O)cc2ccccc12` [Example 27, 8-fluoro-2-(1,2,3,5,6,7-hexahydropyrrolizin-8-ylmethoxy)-7-(3-hydroxy-1-naphthyl)-4-(1,4-oxazepan-4-yl)quinazoline-6-carbonitrile], the IC50 lay within 10 to 100 nM at KRAS G12D; 100 to 10000 nM on KRAS G12S; 100 to 10000 nM on KRAS G12A; 10 to 100 nM at KRAS WT; 10 to 100 nM at KRAS G12V; 10 to 100 nM at KRAS G12C.
Consider `Cc1c(-c2cc(O)cc3ccccc23)ccc2c(N3CC4CCC(C3)N4)nc(OCC34CCCN3CCC4)nc12` [Example 1, 4-[4-(3,8-diazabicyclo[3.2.1]octan-3-yl)-2-(1,2,3,5,6,7-hexahydropyrrolizin-8-ylmethoxy)-8-methyl-quinazolin-7-yl]naphthalen-2-ol], for which the IC50 at KRAS G12D is < 10 nM; on KRAS WT, 100 to 10000 nM; on KRAS G12C, 100 to 10000 nM. The inhibition at 10 µM at KRAS G13D is 10 to 49%.
On to `Cc1c(-c2cccc3sc(N)c(C#N)c23)ccc2c(N3CCCOCC3)nc(OCC34CCCN3CCC4)nc12` [Example 22, 2-amino-4-[2-(1,2,3,5,6,7-hexahydropyrrolizin-8-ylmethoxy)-8-methyl-4-(1,4-oxazepan-4-yl)quinazolin-7-yl]benzothiophene-3-carbonitrile], for which the IC50 on KRAS G12D was 10 to 100 nM; on KRAS G12S, 100 to 10000 nM; on KRAS G12A, 10 to 100 nM; on KRAS WT, 10 to 100 nM; on KRAS Q61H, 10 to 100 nM; on KRAS G12V, < 10 nM. Moreover, the IC50 at KRAS G12C was < 10 nM.
With `C#Cc1c(F)ccc2cc(O)cc(-c3ccc4c(N5CCCOCC5)nc(OC[C@@]56CCCN5C[C@H](F)C6)nc4c3C)c12` (racemic) [Example 6, rac-5-ethynyl-6-fluoro-4-[2-[[(2R,8S)-2-fluoro-1,2,3,5,6,7-hexahydropyrrolizin-8-yl]methoxy]-8-methyl-4-(1,4-oxazepan-4-yl)quinazolin-7-yl]naphthalen-2-ol], the IC50 on KRAS G12D, at KRAS G12S, on KRAS G12A, at KRAS WT, at KRAS Q61H and at KRAS G12V was < 10 nM in each case. On KRAS G12C, the IC50 is < 10 nM. Also, the inhibition at 10 µM on KRAS G13D was 10 to 49%.
In the case of `C#Cc1c(F)ccc2cc(O)cc(-c3ccc4c(N5CCCOCC5)nc(OC[C@@]56CCCN5C[C@H](F)C6)nc4c3F)c12` (racemic) [Example 26, 5-ethynyl-6-fluoro-4-[8-fluoro-4-(1,4-oxazepan-4-yl)-2-[[rac-(2R,8S)-2-fluoro-1,2,3,5,6,7-hexahydropyrrolizin-8-yl]methoxy]quinazolin-7-yl]naphthalen-2-ol], the half-inhibitory concentration (IC50) at KRAS G12D, at KRAS G12S, at KRAS G12A, on KRAS WT, on KRAS G12V and at KRAS G12C was < 10 nM throughout.
For the compound `C#Cc1c(F)ccc2cc(O)cc(-c3ccc4c(N5CCCNC(=O)C5)nc(OC[C@@]56CCCN5C[C@H](F)C6)nc4c3C)c12` (racemic) [Example 24, 4-[7-(8-ethynyl-7-fluoro-3-hydroxy-1-naphthyl)-2-[[rac-(2R,8S)-2-fluoro-1,2,3,5,6,7-hexahydropyrrolizin-8-yl]methoxy]-8-methyl-quinazolin-4-yl]-1,4-diazepan-2-one], the half-maximal inhibitory concentration (IC50) was < 10 nM on KRAS G12D; 10 to 100 nM on KRAS G12S; < 10 nM at KRAS G12A; < 10 nM at KRAS WT; 10 to 100 nM on KRAS Q61H; < 10 nM at KRAS G12V. For the same compound, on KRAS G12C, the IC50 is < 10 nM.
Turning to `Cc1c(-c2cc(O)cc3ccccc23)ccc2c(N3CCCOCC3)nc(OCC34CCCN3CCC4)nc12` [Example 2, 4-[2-(1,2,3,5,6,7-hexahydropyrrolizin-8-ylmethoxy)-8-methyl-4-(1,4-oxazepan-4-yl)quinazolin-7-yl]naphthalen-2-ol], the IC50 at KRAS G12D, on KRAS WT, at KRAS Q61H, on KRAS G12V and at KRAS G12C was 100 to 10000 nM throughout. Besides, the inhibition at 10 µM at KRAS G13D was in the range of 10 to 49%.
As for `Cc1c(-c2cc(O)cc3ccccc23)ccc2c(N3CCSCC3)nc(OCC34CCCN3CCC4)nc12` [Example 3, 4-[2-(1,2,3,5,6,7-hexahydropyrrolizin-8-ylmethoxy)-8-methyl-4-thiomorpholino-quinazolin-7-yl]naphthalen-2-ol], the IC50 on KRAS G12D, at KRAS WT, on KRAS G12C and on KRAS G13D was 100 to 10000 nM each time.
